Data published in US20120321579A1, “SURFACTANT COMPOSITIONS” (ANTERIOS, INC., priority 2011, published 2012).

Tested on: Axillary Sweating
Test: Clinical study to evaluate effect of Polysorbate 80 on axillary sweating (gravimetric sweat measurement)
Assay type: in vivo, human

Polysorbate 80
conclusion on activity in reducing sweat production (conclusion from the clinical study): biologically active in reducing sweat production | reduction in sweat production (average) as measured by gravimetric sweat measurement (two weeks after a single topical treatment, 14.34 mg Polysorbate 80 per axilla (0.3 mL/axilla), subjects with moderate to severe primary axillary hyperhidrosis, 5 minute collection): 159 mg | greater reduction in sweat production than the subjects in the control group (placebo, water) (two weeks after a single topical treatment, 14.34 mg per axilla, 159 mg versus 53 mg placebo): 300% | percent of subjects with at least a 30% reduction in sweat production when compared to levels at the Baseline visit (two weeks after a single topical treatment, 14.34 mg per axilla, gravimetric sweat measurement): 80% | greater effectiveness in reducing sweat production than subjects treated with placebo (responder assessment) (two weeks after a single topical treatment, 80% versus 29% of subjects with at least a 30% reduction): 280%
